Tests used:
Format in all cases: cell-based
[1] = target: T1, human TLR8 (Homo sapiens, UniProt Q9NR97); experiment: TLR8 inhibition reporter assay (HEK-Blue cells, SEAP reporter, R848 stimulation); details: HEK-Blue cells overexpressing human TLR8, SEAP reporter, R848 15.9 μM
T1 construct: host or cells: HEK-Blue cells
T1 sequence (Q9NR97 27-1041): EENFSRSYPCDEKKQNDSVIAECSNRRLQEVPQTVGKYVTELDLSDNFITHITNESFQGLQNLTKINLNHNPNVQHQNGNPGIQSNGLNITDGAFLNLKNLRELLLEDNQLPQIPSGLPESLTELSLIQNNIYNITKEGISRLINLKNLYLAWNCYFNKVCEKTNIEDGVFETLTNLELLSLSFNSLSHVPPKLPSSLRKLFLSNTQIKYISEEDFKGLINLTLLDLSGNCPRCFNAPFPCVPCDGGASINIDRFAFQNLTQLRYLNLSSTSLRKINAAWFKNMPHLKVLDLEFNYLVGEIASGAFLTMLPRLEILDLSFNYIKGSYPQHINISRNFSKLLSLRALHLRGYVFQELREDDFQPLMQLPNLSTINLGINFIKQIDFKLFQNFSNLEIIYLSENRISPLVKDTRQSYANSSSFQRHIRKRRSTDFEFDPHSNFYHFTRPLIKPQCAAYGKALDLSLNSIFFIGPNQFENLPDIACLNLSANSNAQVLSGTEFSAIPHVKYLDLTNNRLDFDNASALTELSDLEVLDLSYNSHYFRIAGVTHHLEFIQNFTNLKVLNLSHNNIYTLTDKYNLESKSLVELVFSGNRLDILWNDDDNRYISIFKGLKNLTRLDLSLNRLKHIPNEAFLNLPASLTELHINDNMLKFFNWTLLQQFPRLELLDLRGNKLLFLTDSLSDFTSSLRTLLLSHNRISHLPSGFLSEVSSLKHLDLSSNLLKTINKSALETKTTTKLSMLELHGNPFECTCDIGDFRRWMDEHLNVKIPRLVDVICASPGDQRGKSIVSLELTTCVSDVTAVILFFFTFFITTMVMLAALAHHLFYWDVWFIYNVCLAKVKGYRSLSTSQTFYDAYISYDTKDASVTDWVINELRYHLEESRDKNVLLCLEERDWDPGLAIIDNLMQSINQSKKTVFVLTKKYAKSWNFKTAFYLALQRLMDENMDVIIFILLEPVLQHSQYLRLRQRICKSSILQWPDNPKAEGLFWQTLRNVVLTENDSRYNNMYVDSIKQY
Summary of the method: (§1)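 Percent inhibition is derived from SEAP signal, scaled between agonist-plus-DMSO wells and wells given a known inhibitor. Test compounds (0.05 nM–50 μM) are pre-incubated 30 min at room temperature before agonist addition (TLR7: 7.5 μM gardiquimod; TLR8: 15.9 μM R848; TLR9: 5 nM ODN2006) and 22 h culture at 37 °C.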

[2] = target: T2, human TLR9 (Homo sapiens, UniProt Q9NR96); experiment: TLR9 inhibition reporter assay (HEK-Blue cells, SEAP reporter, ODN2006 stimulation); details: HEK-Blue cells overexpressing human TLR9, SEAP reporter, ODN2006 5 nM
T2 construct: host or cells: HEK-Blue cells
T2 sequence (Q9NR96 26-1032): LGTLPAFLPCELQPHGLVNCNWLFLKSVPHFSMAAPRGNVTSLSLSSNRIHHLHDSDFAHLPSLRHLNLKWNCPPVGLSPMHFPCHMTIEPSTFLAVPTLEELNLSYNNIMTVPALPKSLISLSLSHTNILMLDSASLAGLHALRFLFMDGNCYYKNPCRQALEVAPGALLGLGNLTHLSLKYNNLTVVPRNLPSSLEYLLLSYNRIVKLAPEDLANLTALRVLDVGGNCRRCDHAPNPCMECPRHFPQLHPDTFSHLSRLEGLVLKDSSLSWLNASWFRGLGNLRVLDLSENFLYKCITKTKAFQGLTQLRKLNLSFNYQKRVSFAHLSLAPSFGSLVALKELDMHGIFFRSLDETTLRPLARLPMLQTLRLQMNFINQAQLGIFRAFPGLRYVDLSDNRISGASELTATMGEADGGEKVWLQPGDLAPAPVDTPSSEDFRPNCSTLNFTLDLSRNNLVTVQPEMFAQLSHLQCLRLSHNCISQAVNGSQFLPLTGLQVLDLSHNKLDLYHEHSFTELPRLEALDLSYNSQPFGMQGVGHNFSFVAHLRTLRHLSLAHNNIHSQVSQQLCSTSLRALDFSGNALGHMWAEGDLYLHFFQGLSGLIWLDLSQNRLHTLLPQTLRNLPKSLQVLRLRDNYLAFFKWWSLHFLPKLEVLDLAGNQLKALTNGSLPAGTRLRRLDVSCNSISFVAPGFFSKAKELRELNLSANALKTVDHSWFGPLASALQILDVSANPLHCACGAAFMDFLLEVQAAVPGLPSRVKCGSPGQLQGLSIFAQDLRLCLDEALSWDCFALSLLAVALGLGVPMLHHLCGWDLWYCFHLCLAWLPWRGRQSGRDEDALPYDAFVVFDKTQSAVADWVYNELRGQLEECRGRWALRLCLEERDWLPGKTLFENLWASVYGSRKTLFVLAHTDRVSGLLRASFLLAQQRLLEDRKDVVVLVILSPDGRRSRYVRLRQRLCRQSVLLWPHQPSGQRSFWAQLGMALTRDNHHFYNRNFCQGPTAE
Summary of the method: as §1

[3] = target: T3, human TLR7 (Homo sapiens, UniProt Q9NYK1); experiment: TLR7 inhibition reporter assay (HEK-Blue cells, SEAP reporter, gardiquimod stimulation); details: HEK-Blue cells overexpressing human TLR7, SEAP reporter, gardiquimod 7.5 μM
T3 construct: host or cells: HEK-Blue cells
T3 sequence (Q9NYK1 27-1049): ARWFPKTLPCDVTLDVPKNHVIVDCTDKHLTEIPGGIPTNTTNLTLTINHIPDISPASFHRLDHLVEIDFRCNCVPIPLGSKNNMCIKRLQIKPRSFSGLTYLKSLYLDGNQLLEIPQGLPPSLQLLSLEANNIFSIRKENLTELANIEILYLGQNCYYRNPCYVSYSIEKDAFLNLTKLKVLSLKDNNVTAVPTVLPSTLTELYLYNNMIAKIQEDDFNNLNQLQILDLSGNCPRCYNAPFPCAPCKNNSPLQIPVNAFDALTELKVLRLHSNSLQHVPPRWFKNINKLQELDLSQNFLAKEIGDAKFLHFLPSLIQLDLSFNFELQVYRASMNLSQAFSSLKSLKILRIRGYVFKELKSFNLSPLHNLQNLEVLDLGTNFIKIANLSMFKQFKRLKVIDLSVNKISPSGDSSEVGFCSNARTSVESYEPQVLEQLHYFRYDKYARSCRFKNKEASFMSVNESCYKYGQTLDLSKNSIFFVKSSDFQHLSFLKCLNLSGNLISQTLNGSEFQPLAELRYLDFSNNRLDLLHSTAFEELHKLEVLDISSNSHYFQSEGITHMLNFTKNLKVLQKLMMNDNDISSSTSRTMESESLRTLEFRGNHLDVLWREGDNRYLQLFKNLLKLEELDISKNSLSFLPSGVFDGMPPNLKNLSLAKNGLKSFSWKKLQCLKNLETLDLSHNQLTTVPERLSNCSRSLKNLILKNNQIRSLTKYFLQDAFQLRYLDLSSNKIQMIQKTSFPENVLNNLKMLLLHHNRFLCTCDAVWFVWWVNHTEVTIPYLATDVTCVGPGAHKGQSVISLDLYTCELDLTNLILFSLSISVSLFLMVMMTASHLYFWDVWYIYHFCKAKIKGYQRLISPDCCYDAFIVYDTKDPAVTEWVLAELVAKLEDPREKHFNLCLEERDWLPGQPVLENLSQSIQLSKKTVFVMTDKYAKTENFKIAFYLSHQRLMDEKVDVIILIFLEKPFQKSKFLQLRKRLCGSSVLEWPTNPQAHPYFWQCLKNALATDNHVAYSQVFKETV
Summary of the method: as §1

Structure (SMILES)	IC50 [1] [nM]	IC50 [2] [nM]	IC50 [3] [nM]
Cc1cc(-c2[nH]c3ccc(C4CCCN(C5CCN(C(C)C)CC5)C4)cc3c2C(C)C)cc(C)n1 (stereo not drawn) [Example 245]	19	419	104
COCCN1CC(c2ccc3[nH]c(-c4cc(C)c5ncnn5c4)c(C(C)C)c3c2)OCC1(C)C (stereo not drawn) [Example 383]	41	13700	9
Cc1c(-c2[nH]c3ccc(C4CCC(NCC(C)(C)O)CC4)cc3c2C(C)C)cn2ncnc2c1C (stereo not drawn) [Example 106]	0.28	1390	0.67
CNCC(=O)NC1CCC(c2ccc3[nH]c(-c4cc(C)nc(C)c4)c(C(C)C)c3c2)CC1 (single isomer, unassigned) [Example 129]	3.9	544	0.3
Cc1c(-c2[nH]c3ccc(CC4CCCN4C4COC4)cc3c2C(C)C)cn2cnnc2c1C (stereo not drawn) [Example 427]	19	17600	12
Cc1c(-c2[nH]c3ccc(C4CN(CC(N)=O)CCO4)cc3c2C(C)C)cn2ncnc2c1C (stereo not drawn) [Example 320]	54	> 50000	16
COc1cc(-c2[nH]c3ccc(C4CN(C(=O)CN(C)C)C(C)(C)CO4)cc3c2C(C)C)cn2ncnc12 (stereo not drawn) [Example 374]	110	5900	20
Cc1cc(-c2[nH]c3ccc(C4CCC(N5CCOCC5)CC4)cc3c2C(C)C)cc(C)n1 (stereo not drawn) [Example 54]	3.3	618	2
COCCN(C)C1CCC(c2ccc3[nH]c(-c4cn5ncnc5c(C)c4C)c(C(C)C)c3c2)CC1 (single isomer, unassigned) [Example 152, 4-(2-(7,8-dimethyl-[1,2,4]triazolo[1,5-a]pyridin-6-yl)-3-isopropyl-1H-indol-5-yl)-N-(2-methoxyethyl)-N-methylcyclohexanamine]	3.4	2850	4
Cc1cc(-c2[nH]c3ccc([C@@H]4C[C@H]4C(=O)N(C)C4CCNCC4)cc3c2C(C)C)ccn1 [Example 462]	27	116	25
Cc1cc(-c2[nH]c3ccc(C4CCC(N5CCOCC5)CC4)cc3c2C(C)C)cc(C)n1 (stereo not drawn) [Example 55]	15	480	8
COc1ccc(CNC2CCC(c3ccc4[nH]c(-c5cc(C)nc(C)c5)c(C(C)C)c4c3)CC2)cc1 (single isomer, unassigned) [Example 49]	22	391	7
COc1cc(-c2[nH]c3ccc(C4CC(N(C)CCS(C)(=O)=O)C4)cc3c2C(C)C)cn2ncnc12 (stereo not drawn) [Example 587]	5.7	21300	5
CNC(=O)CN1CC(c2ccc3[nH]c(-c4cc(OC)c5ncnn5c4)c(C(C)C)c3c2)C1 [Example 263]	4	3620	2
Cc1cc(-c2[nH]c3ccc(C4CN(C)C(C)(C)CO4)cc3c2C(C)C)cn2ncnc12 (single isomer, unassigned) [Example 375, 2-(3-isopropyl-2-(8-methyl-[1,2,4]triazolo[1,5-a]pyridin-6-yl)-1H-indol-5-yl)-4,5,5-trimethylmorpholine]	4.7	2060	1

Further compounds by falling IC50 [1], results first:

IC50 [1] [nM]	IC50 [2] [nM]	IC50 [3] [nM]	Structure (SMILES)
109	19300	7	Cc1cc(-c2[nH]c3ccc(C4CCCN(C(=O)C5(N)CC5)C4)cc3c2C(C)C)cc(C)n1 (stereo not drawn) [Example 201]
38	5020	40	Cc1c(-c2[nH]c3ccc(CC4CN(C(=O)CN(C)C)C4)cc3c2C(C)C)cn(C)c(=O)c1C [Example 415]
13	13600	17	COCCN1CC(c2ccc3[nH]c(-c4cn5cnnc5c(C)c4C)c(C(C)C)c3c2)C1 [Example 550]
5.9	5920	0.81	CCN(C)C1CCC(c2ccc3[nH]c(-c4cc(C)c5ncnn5c4)c(C(C)C)c3c2)CC1 (stereo not drawn) [Example 63]
3.2	2290	0.47	Cc1cc(-c2[nH]c3ccc(C4CCC(C(=O)NC5CCN(C(C)C)CC5)CC4)cc3c2C(C)C)cn2ncnc12 (stereo not drawn) [Example 158]
2.3	> 50000	0.51	CCN(CC)CC(=O)NC1CCC(c2ccc3[nH]c(-c4cn5ncnc5c(C)c4C)c(C(C)C)c3c2)CC1 (stereo not drawn) [Example 126]
1.6	6070	4	Cc1c(-c2[nH]c3ccc(C4CC(N)C4)cc3c2C(C)C)cn(C)c(=O)c1C (stereo not drawn) [Example 492]
1.6	1160	2	COCCN1CCCC(c2ccc3[nH]c(-c4cc(OC)c5ncnn5c4)c(C(C)C)c3c2)C1 (single isomer, unassigned) [Example 252]
1.1	10100	2	Cc1cc(-c2[nH]c3ccc(C4CN(C)CCO4)cc3c2C(C)C)cn2ncnc12 (stereo not drawn) [Example 293]
